Experimental data: patent US5620676A, “Biologically active ATP analogs” (priority 1995, dated 1997)
“Also recorded” adds a separate entry of the source.

Key:
[1] = biological target: T1, P2X receptor (vas deferens) (Cavia porcellus, UniProt A0A286XVA9); assay: Contraction of guinea pig isolated vas deferens
T1 sequence (A0A286XVA9 1-399): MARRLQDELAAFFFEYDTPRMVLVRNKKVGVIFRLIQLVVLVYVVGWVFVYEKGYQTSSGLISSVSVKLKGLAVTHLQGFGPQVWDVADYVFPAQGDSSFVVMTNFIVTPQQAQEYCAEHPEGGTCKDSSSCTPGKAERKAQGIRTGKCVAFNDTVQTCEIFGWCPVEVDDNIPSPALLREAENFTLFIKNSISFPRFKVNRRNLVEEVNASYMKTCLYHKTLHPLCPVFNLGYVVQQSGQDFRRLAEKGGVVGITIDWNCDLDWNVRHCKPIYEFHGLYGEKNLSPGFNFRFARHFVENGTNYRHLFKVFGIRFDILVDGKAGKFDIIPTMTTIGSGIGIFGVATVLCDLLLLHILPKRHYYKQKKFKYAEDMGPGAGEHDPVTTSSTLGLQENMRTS

[2] = biological target: T2, P2X receptor (urinary bladder) (Cavia porcellus, UniProt A0A286XVA9); assay: Contraction of guinea pig isolated urinary bladder detrussor muscle; details: for activity/potency in words, bladder: guinea pig urinary bladder
T2 construct: guinea pig isolated urinary bladder detrussor muscle; from tissue; host or cells: guinea pig isolated urinary bladder detrusor muscle
Experimental: In FIG. 14, the x-axis is also marked in units of the negative log of the molar concentration of applied putative P2Y receptor agonists and the y-axis is marked in units of the percentage relaxation of the 1 μM noradrenalin-induced contraction of rabbit aorta endothelium. In FIGS. 15-16, the x-axis is marked in units of the negative log of the molar concentration of applied putative p^2X receptor agonists and the y-axis is marked in units of the percentage contraction relative to a standard dose of KCl (i.e., 60 mM), as assessed in guinea pig isolated urinary bladder detrussor muscle (FIG. 15) and guinea pig isolated vas deferens (FIG. 16).

[3] = biological target: T3, adenylyl cyclase linked P2Y receptor (C6 rat glioma cells) (Rattus norvegicus, UniProt Q9EPX4); assay: Inhibition of adenylyl cyclase in C6 rat glioma cells; format: cell-based; details: for selectivity for the adenylyl cyclase linked (C6 cell) receptor: versus phospholipase C linked turkey erythrocyte receptor
T3 construct: endogenous in cells; host or cells: C6 rat glioma cells
T3 sequence (Q9EPX4 whole entry): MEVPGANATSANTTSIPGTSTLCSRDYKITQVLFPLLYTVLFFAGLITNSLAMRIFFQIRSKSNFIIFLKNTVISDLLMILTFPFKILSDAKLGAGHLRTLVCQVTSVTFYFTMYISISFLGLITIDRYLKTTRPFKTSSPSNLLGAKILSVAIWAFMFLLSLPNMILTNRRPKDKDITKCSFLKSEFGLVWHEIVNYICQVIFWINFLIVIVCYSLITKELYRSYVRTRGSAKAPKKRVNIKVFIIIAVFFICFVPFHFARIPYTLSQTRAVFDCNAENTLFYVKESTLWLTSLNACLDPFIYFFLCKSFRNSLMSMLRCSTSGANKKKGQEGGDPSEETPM
Method in brief: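 C6 cells labelled 2 h with [3H]adenine, preincubated 10 min at 37 °C in HEPES-buffered Eagle's medium (pH 7.5) with 200 μM IBMX. Stimulated 10 min with 10 μM isoproterenol plus varied nucleotide concentrations. Stopped with ice-cold 5% trichloroacetic acid.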

P2Y receptors = assay: Overall activity in P2Y receptor systems
Experimental: Phospholipase C activity: Stimulation of inositol phosphate formation by compounds of the present invention was measured in turkey erythrocyte membranes as described by Harden et al., supra and Boyer et al., supra. The K0.5 values were averaged from 3-8 independently determined dose-response curves for each compound. Briefly, one ml of washed turkey erythrocytes was incubated in inositol-free medium (DMEM; Gibco) with 0.5-1 mCi of 2-[^3 H]myoinositol (20 Ci/mmol; American Radiolabeled Chemicals Inc., St. Louis, Mo.)for 18-24 h in a humidified atmosphere of 95% air 5% CO2 at 37° C. Erythrocyte ghosts were prepared by rapid lysis in hypotonic buffer (5 mM sodium phosphate, pH 7.4, 5 mM MgCl2, 1 mM EGTA) as described by Boyer et al., supra. Phospholipase C activity was measured in 25 μl of [^3 H]inositol-labeled ghosts (≈175 μg of protein, 200-500,000 cpm/assay) in a medium containing 424 μM CaC12, 0.91 mM MgSO4, 2 mM EGTA, 115 mM KCl, 5 mM KH2 PO4, and 10 mM Hepes, pH 7.0. Assay (100 μl or 200 μl final volume) contained 1 μM GTPγS and the indicated concentrations of nucleotide analogs. Ghosts were incubated at 30° C. for 5 min, and total [^3 H]inositol phosphates were quantitated after purification by anion exchange chromatography according to Harden et al. (supra) and Boyer et al. (supra).
Muscular relaxation/contraction: Relaxant responses mediated via P2Y receptors were examined in guinea pig taenia coli, rabbit aorta, and rabbit mesenteric artery, as described by Hoyle et al. (Br. J. Pharmacol., 107, 367-374 (1992a)), Burnstock et al., (Br. J. Pharmacol., 90, 383-391 (1987a)), and Rubino et al., (Eur. J. Pharmacol., 212, 237-240 (1992)). Contractile responses mediated via P2X receptors were examined in the guinea pig urinary bladder and vas deferens, and rabbit saphenous artery, also using standard methods (see Hoyle et al., supra., 1992; Hoyle et al., Br. J. Pharmacol., 99, 617-621 (1990); and Burnstock et al., Br. J. Pharmacol., 90, 111-120 (1987b)).

[4] = listed as 2-(6-cyanohexyl)thio ATP
[5] = listed as 2-(6-cyanohexylthio)-ATP

Row | SMILES | activity/potency in words, vas deferens [1] | activity/potency in words, bladder [2] | times more potent than ATP, bladder ([2]; guinea pig urinary bladder P2X receptors) | activity/potency in words, bladder [2, 4] | activity/potency in words, bladder ([2]; listed as 2-(6-cyanohexyl)thio-ATP) | activity/potency in words, bladder [2, 5] | selectivity for the adenylyl cyclase linked (C6 cell) receptor [3] | overall activity in words, P2Y systems (P2Y receptors; [4]) | overall activity in words, P2Y systems (P2Y receptors; [5]) | IC50 ([3]; C6 rat glioma cells, 10 μM isoproterenol, read-out: K0.5 values (in nM) for inhibition of adenylyl cyclase in C6 cells)
1 | N#CCCCCCCSc1nc(N)c2ncn([C@@H]3O[C@H](COP(=O)(O)OP(=O)(O)OP(=O)(O)O)[C@@H](O)[C@H]3O)c2n1 [2-(6-Cyanohexylthio)-ATP, 2-(6-Cyanohexylthio)adenosine-5'-triphosphate] | potent agonists in the vas deferens and urinary bladder | it produced tonic contractions rather than the phasic; also recorded: much less potent than ATP under the same conditions | approximately 100 times | produced tonic contractions rather than the typical phasic contractions of ATP | produced contractions that were less tonic, and with a lower potency than ATP under the same conditions | potent agonists in the vas deferens and urinary bladder | 3.9 -fold | by far the most potent agonist in several P2Y receptor preparations | the most potent compound in all of the P2Y receptor assays; also recorded: nanomolar potency | –
2 | C=CCCCCSc1nc(NC)c2ncn([C@@H]3O[C@H](COP(=O)(O)OP(=O)(O)OP(=O)(O)O)[C@@H](O)[C@H]3O)c2n1 [N^6 -Me-2-(5-hexenyl)-thio-ATP, N^6 -Me-2-(5-hexenylthio)adenosine 5'-triphosphate] | – | – | – | – | – | – | 81 -fold | – | – | 0.32 nM
